Test results published in patent publication US10670605B2, “Cysteine reactive probes and uses thereof” (The Scripps Research Institute, priority 2015, dated 2020).

Key:
Assay in all cases: Competitive isoTOP-ABPP in situ (fragment-treated cells)
Type in all cases: cell-based
[1] = biological target: T1, cysteines in MDA-MB-231 and Ramos cells (Homo sapiens, UniProt P30101)
T1 sequence (P30101 25-505): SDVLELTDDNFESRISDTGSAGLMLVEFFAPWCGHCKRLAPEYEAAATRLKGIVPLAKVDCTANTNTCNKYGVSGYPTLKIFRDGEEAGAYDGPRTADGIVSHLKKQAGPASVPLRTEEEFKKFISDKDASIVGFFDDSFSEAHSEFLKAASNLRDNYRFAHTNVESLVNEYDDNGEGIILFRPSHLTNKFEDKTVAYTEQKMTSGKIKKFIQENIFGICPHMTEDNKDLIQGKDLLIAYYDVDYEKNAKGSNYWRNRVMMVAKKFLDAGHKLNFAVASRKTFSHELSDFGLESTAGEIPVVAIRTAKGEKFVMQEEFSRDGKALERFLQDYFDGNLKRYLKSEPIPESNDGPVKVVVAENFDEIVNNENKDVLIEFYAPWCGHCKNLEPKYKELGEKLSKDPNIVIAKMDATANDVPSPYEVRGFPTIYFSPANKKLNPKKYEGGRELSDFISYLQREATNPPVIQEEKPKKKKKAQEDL

[2] = biological target: cysteines in MDA-MB-231 and Ramos cells (Homo sapiens, UniProt Q7Z2W4)
cysteines in MDA-MB-231 and Ramos cells (Homo sapiens, UniProt Q7Z2W4), sequence (Q7Z2W4 whole entry): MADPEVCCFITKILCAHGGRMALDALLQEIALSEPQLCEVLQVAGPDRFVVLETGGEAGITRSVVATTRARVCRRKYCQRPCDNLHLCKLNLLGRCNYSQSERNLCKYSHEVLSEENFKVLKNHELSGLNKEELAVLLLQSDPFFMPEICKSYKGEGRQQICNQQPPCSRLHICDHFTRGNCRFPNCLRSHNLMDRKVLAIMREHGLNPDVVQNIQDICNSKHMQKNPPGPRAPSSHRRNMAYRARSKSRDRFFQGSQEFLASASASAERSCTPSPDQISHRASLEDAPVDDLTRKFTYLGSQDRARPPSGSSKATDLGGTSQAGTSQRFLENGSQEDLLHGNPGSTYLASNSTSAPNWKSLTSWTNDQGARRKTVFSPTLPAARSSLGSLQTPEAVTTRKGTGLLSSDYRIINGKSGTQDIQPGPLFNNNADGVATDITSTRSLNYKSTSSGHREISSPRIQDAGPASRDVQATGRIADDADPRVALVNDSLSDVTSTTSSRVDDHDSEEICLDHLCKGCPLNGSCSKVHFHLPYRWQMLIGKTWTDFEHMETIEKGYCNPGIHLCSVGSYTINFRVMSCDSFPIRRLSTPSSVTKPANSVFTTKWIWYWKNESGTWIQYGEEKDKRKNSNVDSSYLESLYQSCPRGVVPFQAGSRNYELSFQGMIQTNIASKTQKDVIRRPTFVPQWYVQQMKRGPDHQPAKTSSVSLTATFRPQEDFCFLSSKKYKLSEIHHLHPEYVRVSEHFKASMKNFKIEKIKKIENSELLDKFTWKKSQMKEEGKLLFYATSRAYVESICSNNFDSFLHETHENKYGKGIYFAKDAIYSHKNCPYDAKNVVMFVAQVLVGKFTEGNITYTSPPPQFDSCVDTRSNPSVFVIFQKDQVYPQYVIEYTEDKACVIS

[3] = biological target: T2, cysteines in MDA-MB-231 and Ramos cells (Homo sapiens, UniProt O95336)
T2 sequence (O95336 1-258): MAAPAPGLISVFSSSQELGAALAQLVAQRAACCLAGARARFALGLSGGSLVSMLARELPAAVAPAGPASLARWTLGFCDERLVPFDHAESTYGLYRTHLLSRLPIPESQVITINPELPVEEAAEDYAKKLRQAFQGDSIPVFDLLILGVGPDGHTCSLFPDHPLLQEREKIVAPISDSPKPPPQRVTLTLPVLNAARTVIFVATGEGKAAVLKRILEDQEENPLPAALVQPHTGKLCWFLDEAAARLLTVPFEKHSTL

[4] = biological target: T3, cysteines in MDA-MB-231 and Ramos cells (Homo sapiens, UniProt Q13162)
T3 sequence (Q13162 38-271): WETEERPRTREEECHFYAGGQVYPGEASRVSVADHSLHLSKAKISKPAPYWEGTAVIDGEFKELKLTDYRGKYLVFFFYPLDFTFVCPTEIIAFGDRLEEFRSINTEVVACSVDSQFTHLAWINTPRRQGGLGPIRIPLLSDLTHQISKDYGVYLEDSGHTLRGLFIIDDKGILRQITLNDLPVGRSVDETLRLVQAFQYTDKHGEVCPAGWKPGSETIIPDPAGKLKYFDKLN

[5] = biological target: T4, cysteines in MDA-MB-231 and Ramos cells (Homo sapiens, UniProt P50570)
T4 sequence (P50570 1-870): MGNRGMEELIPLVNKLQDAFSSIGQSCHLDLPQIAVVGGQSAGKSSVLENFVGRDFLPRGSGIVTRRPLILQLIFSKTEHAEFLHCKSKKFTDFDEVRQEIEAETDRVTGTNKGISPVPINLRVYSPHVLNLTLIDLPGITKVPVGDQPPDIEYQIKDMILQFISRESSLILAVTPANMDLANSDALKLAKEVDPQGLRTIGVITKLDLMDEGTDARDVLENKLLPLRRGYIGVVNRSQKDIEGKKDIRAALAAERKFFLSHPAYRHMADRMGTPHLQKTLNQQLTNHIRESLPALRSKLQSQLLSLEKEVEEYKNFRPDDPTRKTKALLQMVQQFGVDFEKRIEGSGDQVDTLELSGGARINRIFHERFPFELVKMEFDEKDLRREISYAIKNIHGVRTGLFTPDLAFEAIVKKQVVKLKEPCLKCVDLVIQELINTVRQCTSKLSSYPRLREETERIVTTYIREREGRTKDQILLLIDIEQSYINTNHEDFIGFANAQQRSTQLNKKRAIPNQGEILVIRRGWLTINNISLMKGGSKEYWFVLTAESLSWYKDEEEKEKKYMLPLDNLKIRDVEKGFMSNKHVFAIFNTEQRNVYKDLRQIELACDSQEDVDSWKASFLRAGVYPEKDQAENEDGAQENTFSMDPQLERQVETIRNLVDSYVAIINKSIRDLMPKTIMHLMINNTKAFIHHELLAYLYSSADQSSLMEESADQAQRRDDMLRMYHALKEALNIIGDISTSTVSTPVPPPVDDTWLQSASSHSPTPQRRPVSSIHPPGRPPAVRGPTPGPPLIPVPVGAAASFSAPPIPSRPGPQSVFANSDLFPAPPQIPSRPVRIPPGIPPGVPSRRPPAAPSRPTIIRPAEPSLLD

[6] = biological target: T5, cysteines in MDA-MB-231 and Ramos cells (Homo sapiens, UniProt Q13418)
T5 sequence (Q13418 1-452): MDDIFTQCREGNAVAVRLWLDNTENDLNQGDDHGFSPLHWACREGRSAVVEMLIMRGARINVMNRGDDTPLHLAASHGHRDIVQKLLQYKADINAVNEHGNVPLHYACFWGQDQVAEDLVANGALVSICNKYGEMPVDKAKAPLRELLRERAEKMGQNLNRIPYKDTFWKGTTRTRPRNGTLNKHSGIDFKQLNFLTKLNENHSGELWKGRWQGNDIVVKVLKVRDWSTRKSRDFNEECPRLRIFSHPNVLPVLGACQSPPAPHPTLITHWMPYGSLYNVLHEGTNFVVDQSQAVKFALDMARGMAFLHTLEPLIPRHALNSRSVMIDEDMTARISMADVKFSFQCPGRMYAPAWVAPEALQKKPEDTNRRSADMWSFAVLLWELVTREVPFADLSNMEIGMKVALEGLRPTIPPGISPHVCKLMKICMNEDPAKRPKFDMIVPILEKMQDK

[7] = biological target: cysteines in MDA-MB-231 and Ramos cells (Homo sapiens, UniProt Q02252)
cysteines in MDA-MB-231 and Ramos cells (Homo sapiens, UniProt Q02252), sequence (Q02252 34-535): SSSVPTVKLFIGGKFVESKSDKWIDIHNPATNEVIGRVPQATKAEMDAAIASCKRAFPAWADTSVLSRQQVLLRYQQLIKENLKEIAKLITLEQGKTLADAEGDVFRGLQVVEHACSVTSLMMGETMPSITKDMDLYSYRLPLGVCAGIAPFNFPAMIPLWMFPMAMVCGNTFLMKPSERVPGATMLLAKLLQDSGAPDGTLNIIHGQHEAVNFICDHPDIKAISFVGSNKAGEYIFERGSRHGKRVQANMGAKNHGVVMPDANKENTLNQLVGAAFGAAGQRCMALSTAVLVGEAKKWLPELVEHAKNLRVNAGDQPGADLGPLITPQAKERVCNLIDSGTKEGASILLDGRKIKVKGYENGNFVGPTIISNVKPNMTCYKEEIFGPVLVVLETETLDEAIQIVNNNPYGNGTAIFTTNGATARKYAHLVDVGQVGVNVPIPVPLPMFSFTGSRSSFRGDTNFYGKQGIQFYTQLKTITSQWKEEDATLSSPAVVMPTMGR

[8] = biological target: T6, cysteines in MDA-MB-231 and Ramos cells (Homo sapiens, UniProt A6NDU8)
T6 sequence (A6NDU8 1-294): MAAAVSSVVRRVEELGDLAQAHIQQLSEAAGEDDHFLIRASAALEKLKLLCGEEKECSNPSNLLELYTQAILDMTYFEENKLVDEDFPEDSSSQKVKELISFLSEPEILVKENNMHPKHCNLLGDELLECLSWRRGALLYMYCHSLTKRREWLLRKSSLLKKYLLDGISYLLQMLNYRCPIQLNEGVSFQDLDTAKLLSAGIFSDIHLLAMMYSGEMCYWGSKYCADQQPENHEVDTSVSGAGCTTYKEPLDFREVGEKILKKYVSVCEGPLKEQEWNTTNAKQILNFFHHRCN

| Structure (SMILES) | isoTOP-ABPP ratio P30101_C57 ([1]; 200 μM, insitu, 231) | isoTOP-ABPP ratio P30101_C406 ([1]; 200 μM, insitu, 231) | isoTOP-ABPP ratio Q7Z2W4_C645 ([2]; 200 μM, insitu, 231) | isoTOP-ABPP ratio O95336_C32 ([3]; 200 μM, insitu, 231) | isoTOP-ABPP ratio Q13162_C51 ([4]; 200 μM, insitu, 231) | isoTOP-ABPP ratio P50570_C27 ([5]; 200 μM, insitu, 231) | isoTOP-ABPP ratio Q13418_C346 ([6]; 200 μM, insitu, 231) | isoTOP-ABPP ratio Q02252_C317 ([7]; 200 μM, insitu, 231) | isoTOP-ABPP ratio A6NDU8_C179 ([8]; 200 μM, insitu, 231) | other results |
| --- | --- | --- | --- | --- | --- | --- | --- | --- | --- | --- |
| CC(C)CCOCCNC(=O)CCl [compound 27] | 1.1 | 1.2 | 0.8 | 0.5 | 0.9 | 0.5 | 0.6 | 2.0 | 0.7 | – |
| COc1ccc2c(c1)CCCN2C(=O)CCl [compound 2] | – | – | – | – | – | – | – | – | – | isoTOP-ABPP reactivity P30101_057 PDIA3 ([1]; 200 μM, insitu, 231): 2.2; isoTOP-ABPP reactivity P30101_C406 PDIA3 ([1]; 200 μM, insitu, 231): 3.2; isoTOP-ABPP reactivity O95336_C32 PGLS ([3]; 200 μM, insitu, 231): 14.9; isoTOP-ABPP reactivity Q13162_C51 PRDX4 ([4]; 200 μM, insitu, 231): 4.6; isoTOP-ABPP reactivity P50570_C27 DNM2 ([5]; 200 μM, insitu, 231): 4.6; isoTOP-ABPP reactivity Q13418_C346 ILK ([6]; 200 μM, insitu, 231): 1.4; isoTOP-ABPP reactivity Q02252_C317 ALDH6A1 ([7]; 200 μM, insitu, 231): 10.3; isoTOP-ABPP reactivity A6NDU8_C179 C5orf51 ([8]; 200 μM, insitu, 231): 4.2 |
| C=CC(=O)Nc1cc(F)c(N2CCN(C(=O)OC(C)(C)C)CC2)c(F)c1 [compound 38] | 0.9 | 0.8 | 0.9 | 2.8 | 2.4 | 0.9 | 1.0 | 2.4 | 1.4 | – |
| Cn1cc(S(=O)(=O)N2CCOCC2)cc1C(=O)NC(=O)CCl [compound 11] | – | – | – | – | – | – | – | – | – | isoTOP-ABPP ratio P30101_C57 ([1]; 100 μM in situ 231): 2.2; isoTOP-ABPP ratio Q7Z2W4_C645 ([2]; 100 μM in situ 231): 1.0; isoTOP-ABPP ratio O95336_C32 ([3]; 100 μM in situ 231): 0.9; isoTOP-ABPP ratio Q13162_C51 ([4]; 100 μM in situ 231): 0.9; isoTOP-ABPP ratio P50570_C27 ([5]; 100 μM in situ 231): 0.7; isoTOP-ABPP ratio Q13418_C346 ([6]; 100 μM in situ 231): 0.6; isoTOP-ABPP ratio Q02252_C317 ([7]; 100 μM in situ 231): 0.9; isoTOP-ABPP ratio A6NDU8_C179 ([8]; 100 μM in situ 231): 0.7 |
| O=C(CCl)NC12CC3CC(CC(C3)C1)C2 [compound 21] | 1.0 | – | 0.9 | 0.9 | 1.7 | 0.8 | 0.5 | 1.5 | 0.9 | – |
